{"source": "patent US4485110A", "about": "“β-Lactam compounds, and use” (priority 1980, dated 1984)", "format_in_all_cases": "cell-based", "key": {"S. aureus Russell [1]": {"system": "S. aureus Russell", "test": "β-Lactamase inhibitory activity: antibiotic MIC alone or in combination", "excerpt": "(§1) These tables show the MIC values of amoxycillin, cephaloridine, ticarcillin and apalcillin against a number of β-lactamase producing organisms."}, "P. mirabilis 889": {"system": "P. mirabilis 889", "test": "β-Lactamase inhibitory activity: antibiotic MIC alone or in combination", "conditions": "Proteus mirabilis, 889, apalcillin alone; read-out: Apalcillin MIC", "excerpt": "as §1"}, "K. aerogenes Ba95R+": {"system": "K. aerogenes Ba95R+", "test": "β-Lactamase inhibitory activity: antibiotic MIC alone or in combination", "conditions": "Klebsiella aerogenes, read-out: Apalcillin MIC", "excerpt": "as §1"}, "S. aureus MB9": {"system": "S. aureus MB9", "test": "β-Lactamase inhibitory activity: antibiotic MIC alone or in combination", "excerpt": "as §1"}, "K. aerogenes A [2]": {"system": "K. aerogenes A", "test": "β-Lactamase inhibitory activity: antibiotic MIC alone or in combination", "conditions": "Klebsiella aerogenes, apalcillin alone; read-out: Apalcillin MIC", "excerpt": "as §1"}, "E. coli 0111 [3]": {"system": "E. coli 0111", "test": "β-Lactamase inhibitory activity: antibiotic MIC alone or in combination", "conditions": "Escherichia coli, 0111, apalcillin alone; read-out: Apalcillin MIC", "excerpt": "as §1"}, "P. rettgeri WM16": {"system": "P. rettgeri WM16", "test": "β-Lactamase inhibitory activity: antibiotic MIC alone or in combination", "conditions": "Providencia rettgeri, WM16, apalcillin alone; read-out: Apalcillin MIC", "excerpt": "as §1"}, "P. morganii 1580": {"system": "P. morganii 1580", "test": "β-Lactamase inhibitory activity: antibiotic MIC alone or in combination", "conditions": "Morganella morganii, 1580, apalcillin alone; read-out: Apalcillin MIC", "excerpt": "as §1"}, "E. coli JT410 C+": {"system": "E. coli JT410 C+", "test": "β-Lactamase inhibitory activity: antibiotic MIC alone or in combination", "conditions": "Escherichia coli, apalcillin alone; read-out: Apalcillin MIC", "excerpt": "as §1"}, "C. freundii E8": {"system": "C. freundii E8", "test": "β-Lactamase inhibitory activity: antibiotic MIC alone or in combination", "conditions": "Citrobacter freundii, E8, apalcillin alone; read-out: Apalcillin MIC", "excerpt": "as §1"}, "S. marcescens US20": {"system": "S. marcescens US20", "test": "β-Lactamase inhibitory activity: antibiotic MIC alone or in combination", "conditions": "Serratia marcescens, US20, apalcillin alone; read-out: Apalcillin MIC", "excerpt": "as §1"}, "K. aerogenes I112": {"system": "K. aerogenes I112", "test": "β-Lactamase inhibitory activity: antibiotic MIC alone or in combination", "conditions": "Klebsiella aerogenes, I112, read-out: Apalcillin MIC, apalcillin alone", "excerpt": "as §1"}, "P. vulgaris WO91": {"system": "P. vulgaris WO91", "test": "β-Lactamase inhibitory activity: antibiotic MIC alone or in combination", "conditions": "Proteus vulgaris, WO91, apalcillin alone; read-out: Apalcillin MIC", "excerpt": "as §1"}, "P. mirabilis 977 [4]": {"system": "P. mirabilis 977", "test": "β-Lactamase inhibitory activity: antibiotic MIC alone or in combination", "conditions": "Proteus mirabilis, 977, apalcillin alone; read-out: Apalcillin MIC", "excerpt": "as §1"}, "P. aeruginosa Dalgleish": {"system": "P. aeruginosa Dalgleish", "test": "β-Lactamase inhibitory activity: antibiotic MIC alone or in combination", "conditions": "Pseudomonas aeruginosa; apalcillin alone; read-out: Apalcillin MIC", "excerpt": "as §1"}, "C. freundii B10R+": {"system": "C. freundii B10R+", "test": "β-Lactamase inhibitory activity: antibiotic MIC alone or in combination", "conditions": "Citrobacter freundii, read-out: Apalcillin MIC", "excerpt": "as §1"}, "E. coli JT20R+": {"system": "E. coli JT20R+", "test": "β-Lactamase inhibitory activity: antibiotic MIC alone or in combination", "conditions": "Escherichia coli, read-out: Apalcillin MIC", "excerpt": "as §1"}, "P. aeruginosa A [5]": {"system": "P. aeruginosa A", "test": "β-Lactamase inhibitory activity: antibiotic MIC alone or in combination", "conditions": "Pseudomonas aeruginosa; apalcillin alone; read-out: Apalcillin MIC", "excerpt": "as §1"}, "E. coli JT39R+": {"system": "E. coli JT39R+", "test": "β-Lactamase inhibitory activity: antibiotic MIC alone or in combination", "conditions": "Escherichia coli, read-out: Apalcillin MIC, apalcillin alone", "excerpt": "as §1"}, "E. cloacae N1": {"system": "E. cloacae N1", "test": "β-Lactamase inhibitory activity: antibiotic MIC alone or in combination", "conditions": "Enterobacter cloacae, N1, apalcillin alone; read-out: Apalcillin MIC"}, "S. aureus Russell [6]": {"system": "S. aureus Russell", "test": "Antibacterial activity, broth MIC", "conditions": "Staphylococcus aureus, compound alone", "excerpt": "(§2) The antibacterial activity of a number of compounds described in the foregoing Examples against a number of organisms is shown in Tables 1 and 10."}, "P. morganii I 580": {"system": "P. morganii I 580", "test": "Antibacterial activity, broth MIC", "conditions": "Morganella morganii, I580, compound alone", "excerpt": "as §2"}, "S. aureus Oxford": {"system": "S. aureus Oxford", "test": "Antibacterial activity, broth MIC", "conditions": "Staphylococcus aureus, compound alone", "excerpt": "as §2"}, "E. coli JT 39 R^+": {"system": "E. coli JT 39 R^+", "test": "Antibacterial activity, broth MIC", "conditions": "Escherichia coli; compound alone, broth; read-out: Broth MIC", "excerpt": "as §2"}, "K. aerogenes A [7]": {"system": "K. aerogenes A", "test": "Antibacterial activity, broth MIC", "conditions": "Klebsiella aerogenes; compound alone, broth; read-out: Broth MIC", "excerpt": "as §2"}, "E. coli 0111 [8]": {"system": "E. coli 0111", "test": "Antibacterial activity, broth MIC", "conditions": "Escherichia coli, compound alone", "excerpt": "as §2"}, "S. typhimurium CT 10": {"system": "S. typhimurium CT 10", "test": "Antibacterial activity, broth MIC", "conditions": "Salmonella enterica, compound alone", "excerpt": "as §2"}, "S. faecalis I": {"system": "S. faecalis I", "test": "Antibacterial activity, broth MIC", "conditions": "Enterococcus faecalis; compound alone, broth; read-out: Broth MIC", "excerpt": "as §2"}, "P. vulgaris WO 91": {"system": "P. vulgaris WO 91", "test": "Antibacterial activity, broth MIC", "conditions": "Proteus vulgaris, WO91, compound alone", "excerpt": "as §2"}, "P. rettgeri WM 16": {"system": "P. rettgeri WM 16", "test": "Antibacterial activity, broth MIC", "conditions": "Providencia rettgeri, WM16, compound alone", "excerpt": "as §2"}, "S. sonnei MB 11967": {"system": "S. sonnei MB 11967", "test": "Antibacterial activity, broth MIC", "conditions": "Shigella sonnei, MB11967, compound alone", "excerpt": "as §2"}, "P. mirabilis 977 [9]": {"system": "P. mirabilis 977", "test": "Antibacterial activity, broth MIC", "conditions": "Proteus mirabilis, compound alone", "excerpt": "as §2"}, "S. marcescens US 20": {"system": "S. marcescens US 20", "test": "Antibacterial activity, broth MIC", "conditions": "Serratia marcescens, US20; compound alone, broth; read-out: Broth MIC", "excerpt": "as §2"}, "S. pyogenes CN 10": {"system": "S. pyogenes CN 10", "test": "Antibacterial activity, broth MIC", "conditions": "Streptococcus pyogenes, CN10, compound alone", "excerpt": "as §2"}, "E. cloacae N 1": {"system": "E. cloacae N 1", "test": "Antibacterial activity, broth MIC", "conditions": "Enterobacter cloacae, N1, compound alone", "excerpt": "as §2"}, "S. aureus 1517": {"system": "S. aureus 1517", "test": "Antibacterial activity, broth MIC", "conditions": "Staphylococcus aureus, compound alone", "excerpt": "as §2"}, "P. aeruginosa A [10]": {"system": "P. aeruginosa A", "test": "Antibacterial activity, broth MIC", "conditions": "Pseudomonas aeruginosa, compound alone", "excerpt": "as §2"}, "S. pneumoniae CN 33": {"system": "S. pneumoniae CN 33", "test": "Antibacterial activity, broth MIC", "conditions": "Streptococcus pneumoniae, CN33, compound alone", "excerpt": "as §2"}, "C. freundii E 8": {"system": "C. freundii E 8", "test": "Antibacterial activity, broth MIC", "conditions": "Citrobacter freundii, E8; compound alone, broth; read-out: Broth MIC", "excerpt": "as §2"}, "[11]": {"system": "β-lactamase producing organisms", "test": "β-Lactamase inhibitory activity: synergistic properties", "conditions": "addition of the compound, Tables 2-5", "excerpt": "as §1"}}}
{"smiles": "CC1(C)S[C@@H]2[C@H](NC(=O)[C@H](NC(=O)c3cnc4cccnc4c3O)c3ccccc3)C(=O)N2[C@H]1C(=O)O", "note": "[Apalcillin]", "values": [{"measurement": "MIC", "setting": "S. aureus Russell [1]; Staphylococcus aureus, apalcillin alone, read-out: Apalcillin MIC", "value": 250, "unit": "µg/mL"}, {"measurement": "MIC", "setting": "P. mirabilis 889", "value": "> 1000", "unit": "µg/mL"}, {"measurement": "MIC", "setting": "K. aerogenes Ba95R+", "value": "> 1000", "unit": "µg/mL"}, {"measurement": "MIC", "setting": "S. aureus MB9; Staphylococcus aureus, MB9, apalcillin alone, read-out: Apalcillin MIC", "value": 50, "unit": "µg/mL"}, {"measurement": "MIC", "setting": "K. aerogenes A [2]", "value": 10, "unit": "µg/mL"}, {"measurement": "MIC", "setting": "E. coli 0111 [3]", "value": 2.5, "unit": "µg/mL"}, {"measurement": "MIC", "setting": "P. rettgeri WM16", "value": 10, "unit": "µg/mL"}, {"measurement": "MIC", "setting": "P. morganii 1580", "value": 1000, "unit": "µg/mL"}, {"measurement": "MIC", "setting": "E. coli JT410 C+", "value": 25, "unit": "µg/mL"}, {"measurement": "MIC", "setting": "C. freundii E8", "value": 2.5, "unit": "µg/mL"}, {"measurement": "MIC", "setting": "S. marcescens US20", "value": 5, "unit": "µg/mL"}, {"measurement": "MIC", "setting": "K. aerogenes I112", "value": 25, "unit": "µg/mL"}, {"measurement": "MIC", "setting": "P. vulgaris WO91", "value": 10, "unit": "µg/mL"}, {"measurement": "MIC", "setting": "P. mirabilis 977 [4]", "value": 2.5, "unit": "µg/mL"}, {"measurement": "MIC", "setting": "P. aeruginosa Dalgleish", "value": "> 1000", "unit": "µg/mL"}, {"measurement": "MIC", "setting": "C. freundii B10R+", "value": "> 1000", "unit": "µg/mL"}, {"measurement": "MIC", "setting": "E. coli JT20R+", "value": "> 1000", "unit": "µg/mL"}, {"measurement": "MIC", "setting": "P. aeruginosa A [5]", "value": 2.5, "unit": "µg/mL"}, {"measurement": "MIC", "setting": "E. coli JT39R+", "value": 1000, "unit": "µg/mL"}, {"measurement": "MIC", "setting": "E. cloacae N1", "value": 5, "unit": "µg/mL"}]}
{"smiles": "C/C=C1/C(=O)N2C(C(=O)O)=C(SCC)SC12", "note": "(racemic) [Compound 27, (5RS)-Sodium(Z)-6-Ethylidene-2-ethylthiopenem-3-carboxylate]", "values": [{"measurement": "Inhibition by compound alone (footnote)", "setting": "S. aureus Russell [1]; compound alone, 5.0 μg/ml", "value": "inhibitory"}, {"measurement": "Inhibition by compound alone (footnote)", "setting": "S. aureus MB9; compound alone, 5.0 μg/ml", "value": "inhibitory"}, {"measurement": "MIC", "setting": "S. aureus Russell [6]", "value": 4, "unit": "µg/mL"}, {"measurement": "MIC", "setting": "P. morganii I 580", "value": 31, "unit": "µg/mL"}, {"measurement": "MIC", "setting": "S. aureus Oxford", "value": 2, "unit": "µg/mL"}, {"measurement": "MIC", "setting": "E. coli JT 39 R^+", "value": 16, "unit": "µg/mL"}, {"measurement": "MIC", "setting": "K. aerogenes A [7]", "value": 16, "unit": "µg/mL"}, {"measurement": "MIC", "setting": "E. coli 0111 [8]", "value": 31, "unit": "µg/mL"}, {"measurement": "MIC", "setting": "S. typhimurium CT 10", "value": 16, "unit": "µg/mL"}, {"measurement": "MIC", "setting": "S. faecalis I", "value": 250, "unit": "µg/mL"}, {"measurement": "MIC", "setting": "P. vulgaris WO 91", "value": 31, "unit": "µg/mL"}, {"measurement": "MIC", "setting": "P. rettgeri WM 16", "value": 62, "unit": "µg/mL"}, {"measurement": "MIC", "setting": "S. sonnei MB 11967", "value": 31, "unit": "µg/mL"}, {"measurement": "MIC", "setting": "P. mirabilis 977 [9]", "value": 31, "unit": "µg/mL"}, {"measurement": "MIC", "setting": "S. marcescens US 20", "value": 62, "unit": "µg/mL"}, {"measurement": "MIC", "setting": "S. pyogenes CN 10", "value": 4, "unit": "µg/mL"}, {"measurement": "MIC", "setting": "E. cloacae N 1", "value": 31, "unit": "µg/mL"}, {"measurement": "MIC", "setting": "S. aureus 1517", "value": 16, "unit": "µg/mL"}, {"measurement": "MIC", "setting": "P. aeruginosa A [10]", "value": "> 500", "unit": "µg/mL"}, {"measurement": "MIC", "setting": "S. pneumoniae CN 33", "value": 2, "unit": "µg/mL"}, {"measurement": "MIC", "setting": "C. freundii E 8", "value": 31, "unit": "µg/mL"}, {"measurement": "Effect on MIC of amoxycillin, cephaloridine, ticarcillin and apalcillin", "setting": "[11]", "value": "marked decrease in the MIC"}]}
